According to the kinase profiling compilation of Christmann-Franck et al. (2016):

How the values were obtained:
Assay in all cases: radiometric filter-binding kinase assay
BTK (human) = BTK (human) (UniProt Q06187)
HIPK1 (human) = HIPK1 (human) (UniProt Q86Z02)
RIPK2 (human) = RIPK2 (human) (UniProt O43353)
DYRK1A (human) = DYRK1A (human) (UniProt Q13627)
PRKCZ (human) = PRKCZ (human) (UniProt Q05513)
HIPK2 (human) = HIPK2 (human) (UniProt Q9H2X6)
GSK3B (human) = GSK3B (human) (UniProt P49841)
MARK3 (human) = MARK3 (human) (UniProt P27448)
Chain of MARK3 (human) (P27448 whole entry, looked up): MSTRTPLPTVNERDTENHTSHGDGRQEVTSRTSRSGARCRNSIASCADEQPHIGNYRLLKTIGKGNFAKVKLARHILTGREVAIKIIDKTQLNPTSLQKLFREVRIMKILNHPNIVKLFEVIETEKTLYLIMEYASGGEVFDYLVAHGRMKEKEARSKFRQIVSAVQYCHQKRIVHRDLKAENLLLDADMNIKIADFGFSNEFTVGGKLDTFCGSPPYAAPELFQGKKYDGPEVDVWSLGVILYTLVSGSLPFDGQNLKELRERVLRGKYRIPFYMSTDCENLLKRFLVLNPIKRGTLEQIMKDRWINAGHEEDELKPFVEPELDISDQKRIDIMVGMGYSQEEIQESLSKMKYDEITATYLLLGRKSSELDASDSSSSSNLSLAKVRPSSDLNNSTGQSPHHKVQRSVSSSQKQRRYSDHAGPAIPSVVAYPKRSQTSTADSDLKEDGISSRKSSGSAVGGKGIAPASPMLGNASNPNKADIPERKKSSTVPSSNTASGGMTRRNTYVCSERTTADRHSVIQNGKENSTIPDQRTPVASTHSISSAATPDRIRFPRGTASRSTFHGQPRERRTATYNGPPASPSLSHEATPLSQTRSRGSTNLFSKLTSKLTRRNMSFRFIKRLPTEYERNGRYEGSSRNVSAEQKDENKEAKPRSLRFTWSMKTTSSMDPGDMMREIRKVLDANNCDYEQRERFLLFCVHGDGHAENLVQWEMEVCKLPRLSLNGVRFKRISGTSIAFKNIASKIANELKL

FGFR1 (human) = FGFR1 (human) (UniProt P11362)
TTK (human) = TTK (human) (UniProt P33981)
Chain of TTK (human) (P33981 whole entry, looked up): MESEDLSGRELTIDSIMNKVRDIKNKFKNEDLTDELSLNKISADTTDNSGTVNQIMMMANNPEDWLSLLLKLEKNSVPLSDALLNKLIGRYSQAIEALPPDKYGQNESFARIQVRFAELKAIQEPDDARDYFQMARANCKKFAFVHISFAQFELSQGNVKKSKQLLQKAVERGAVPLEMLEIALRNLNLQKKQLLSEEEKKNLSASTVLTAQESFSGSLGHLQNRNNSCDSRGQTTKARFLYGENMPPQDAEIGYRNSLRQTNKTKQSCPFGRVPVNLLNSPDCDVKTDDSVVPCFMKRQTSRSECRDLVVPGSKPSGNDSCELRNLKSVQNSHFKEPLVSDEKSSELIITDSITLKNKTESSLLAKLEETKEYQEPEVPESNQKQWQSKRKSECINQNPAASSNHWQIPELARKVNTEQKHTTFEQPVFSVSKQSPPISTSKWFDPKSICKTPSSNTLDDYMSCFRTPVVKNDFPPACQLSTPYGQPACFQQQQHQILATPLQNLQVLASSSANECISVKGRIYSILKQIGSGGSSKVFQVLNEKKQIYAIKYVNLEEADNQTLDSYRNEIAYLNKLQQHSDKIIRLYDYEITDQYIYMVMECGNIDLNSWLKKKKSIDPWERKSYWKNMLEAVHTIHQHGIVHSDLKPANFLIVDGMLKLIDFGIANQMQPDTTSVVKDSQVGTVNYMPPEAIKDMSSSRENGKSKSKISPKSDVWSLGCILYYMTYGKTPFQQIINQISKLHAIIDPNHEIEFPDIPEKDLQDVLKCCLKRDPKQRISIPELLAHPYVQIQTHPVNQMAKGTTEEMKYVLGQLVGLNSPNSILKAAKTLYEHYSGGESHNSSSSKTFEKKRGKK

MARK4 (human) = MARK4 (human) (UniProt Q96L34)
DYRK3 (human) = DYRK3 (human) (UniProt O43781)
SRC (human) = SRC (human) (UniProt P12931)
PRKCA (human) = PRKCA (human) (UniProt P17252)
EEF2K (human) = EEF2K (human) (UniProt O00418)
NUAK1 (human) = NUAK1 (human) (UniProt O60285)
Chain of NUAK1 (human) (O60285 whole entry, looked up): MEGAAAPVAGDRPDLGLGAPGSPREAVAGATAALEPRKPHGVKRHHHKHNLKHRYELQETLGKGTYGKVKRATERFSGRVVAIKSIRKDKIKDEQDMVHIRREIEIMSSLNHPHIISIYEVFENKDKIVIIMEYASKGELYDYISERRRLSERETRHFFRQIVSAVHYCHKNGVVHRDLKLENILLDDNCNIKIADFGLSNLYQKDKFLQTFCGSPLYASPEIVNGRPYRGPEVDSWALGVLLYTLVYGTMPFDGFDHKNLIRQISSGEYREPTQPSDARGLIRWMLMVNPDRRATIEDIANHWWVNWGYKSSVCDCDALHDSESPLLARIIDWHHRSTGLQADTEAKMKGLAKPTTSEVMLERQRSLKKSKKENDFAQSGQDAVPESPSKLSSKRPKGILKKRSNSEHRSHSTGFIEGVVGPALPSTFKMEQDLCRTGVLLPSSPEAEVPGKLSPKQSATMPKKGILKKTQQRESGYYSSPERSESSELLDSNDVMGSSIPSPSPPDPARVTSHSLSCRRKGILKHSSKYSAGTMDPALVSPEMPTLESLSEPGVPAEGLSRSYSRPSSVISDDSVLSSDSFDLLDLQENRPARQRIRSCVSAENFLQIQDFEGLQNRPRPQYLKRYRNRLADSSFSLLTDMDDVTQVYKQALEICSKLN

RPS6KA1 KD1 KD2 (human) = RPS6KA1 KD1 KD2 (human) (UniProt Q15418)
INSRR (human) = INSRR (human) (UniProt P14616)
RPS6KA5 KD1 KD2 (human) = RPS6KA5 KD1 KD2 (human) (UniProt O75582)
MAPK3 (human) = MAPK3 (human) (UniProt P27361)
Chain of MAPK3 (human) (P27361 whole entry, looked up): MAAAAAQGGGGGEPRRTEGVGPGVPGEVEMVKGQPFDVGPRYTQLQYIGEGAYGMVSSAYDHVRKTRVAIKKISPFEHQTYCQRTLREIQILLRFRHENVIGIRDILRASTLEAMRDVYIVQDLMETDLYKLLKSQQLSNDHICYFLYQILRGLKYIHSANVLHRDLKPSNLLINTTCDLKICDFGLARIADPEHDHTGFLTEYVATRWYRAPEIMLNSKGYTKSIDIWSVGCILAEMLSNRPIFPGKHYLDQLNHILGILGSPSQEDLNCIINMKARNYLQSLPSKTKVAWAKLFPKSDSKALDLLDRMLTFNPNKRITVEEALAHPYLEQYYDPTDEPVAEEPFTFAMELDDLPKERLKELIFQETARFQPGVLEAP

MAP3K9 (human) = MAP3K9 (human) (UniProt P80192)
CaMK1 (human) = CaMK1 (human) (UniProt Q14012)
CHEK2 (human) = CHEK2 (human) (UniProt O96017)
SYK (human) = SYK (human) (UniProt P43405)
MAPK8 (human) = MAPK8 (human) (UniProt P45983)
RPS6KA3 KD1 KD2 (human) = RPS6KA3 KD1 KD2 (human) (UniProt P51812)
MAPKAPK2 (human) = MAPKAPK2 (human) (UniProt P49137)
FLT1 (human) = FLT1 (human) (UniProt P17948)
MAPK15 (human) = MAPK15 (human) (UniProt Q8TD08)

Chain of HIPK2 (human) (Q9H2X6 whole entry, looked up): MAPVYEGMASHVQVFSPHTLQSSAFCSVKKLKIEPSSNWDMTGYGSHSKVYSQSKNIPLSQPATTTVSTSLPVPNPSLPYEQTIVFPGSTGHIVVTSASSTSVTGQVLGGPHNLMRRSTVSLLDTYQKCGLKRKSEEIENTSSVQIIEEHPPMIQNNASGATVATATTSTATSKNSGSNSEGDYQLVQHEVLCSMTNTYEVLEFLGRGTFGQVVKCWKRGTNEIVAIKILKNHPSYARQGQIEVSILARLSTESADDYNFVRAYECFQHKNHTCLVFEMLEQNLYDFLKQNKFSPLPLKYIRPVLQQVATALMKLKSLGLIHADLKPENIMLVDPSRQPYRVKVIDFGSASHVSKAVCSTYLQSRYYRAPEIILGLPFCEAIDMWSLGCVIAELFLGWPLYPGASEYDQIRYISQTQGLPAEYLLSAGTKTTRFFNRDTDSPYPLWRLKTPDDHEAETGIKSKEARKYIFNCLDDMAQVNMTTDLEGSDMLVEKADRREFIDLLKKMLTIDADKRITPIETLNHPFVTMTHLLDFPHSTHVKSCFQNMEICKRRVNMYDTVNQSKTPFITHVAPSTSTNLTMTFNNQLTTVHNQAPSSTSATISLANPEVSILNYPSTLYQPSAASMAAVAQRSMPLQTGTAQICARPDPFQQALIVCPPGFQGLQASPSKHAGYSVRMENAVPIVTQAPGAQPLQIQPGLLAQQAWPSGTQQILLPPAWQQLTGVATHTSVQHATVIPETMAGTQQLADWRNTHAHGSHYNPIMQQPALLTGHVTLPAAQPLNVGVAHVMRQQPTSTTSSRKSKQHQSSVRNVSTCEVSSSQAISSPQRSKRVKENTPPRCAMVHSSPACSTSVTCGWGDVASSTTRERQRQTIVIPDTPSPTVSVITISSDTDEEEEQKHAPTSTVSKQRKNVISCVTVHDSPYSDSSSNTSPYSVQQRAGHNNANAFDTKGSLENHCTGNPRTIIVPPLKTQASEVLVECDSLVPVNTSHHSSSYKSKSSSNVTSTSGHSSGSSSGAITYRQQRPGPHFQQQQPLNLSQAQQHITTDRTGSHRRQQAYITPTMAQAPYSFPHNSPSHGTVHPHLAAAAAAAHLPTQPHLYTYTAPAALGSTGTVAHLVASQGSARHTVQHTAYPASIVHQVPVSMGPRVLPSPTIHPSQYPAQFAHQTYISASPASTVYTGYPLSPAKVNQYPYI
Chain of HIPK1 (human) (Q86Z02 whole entry, looked up): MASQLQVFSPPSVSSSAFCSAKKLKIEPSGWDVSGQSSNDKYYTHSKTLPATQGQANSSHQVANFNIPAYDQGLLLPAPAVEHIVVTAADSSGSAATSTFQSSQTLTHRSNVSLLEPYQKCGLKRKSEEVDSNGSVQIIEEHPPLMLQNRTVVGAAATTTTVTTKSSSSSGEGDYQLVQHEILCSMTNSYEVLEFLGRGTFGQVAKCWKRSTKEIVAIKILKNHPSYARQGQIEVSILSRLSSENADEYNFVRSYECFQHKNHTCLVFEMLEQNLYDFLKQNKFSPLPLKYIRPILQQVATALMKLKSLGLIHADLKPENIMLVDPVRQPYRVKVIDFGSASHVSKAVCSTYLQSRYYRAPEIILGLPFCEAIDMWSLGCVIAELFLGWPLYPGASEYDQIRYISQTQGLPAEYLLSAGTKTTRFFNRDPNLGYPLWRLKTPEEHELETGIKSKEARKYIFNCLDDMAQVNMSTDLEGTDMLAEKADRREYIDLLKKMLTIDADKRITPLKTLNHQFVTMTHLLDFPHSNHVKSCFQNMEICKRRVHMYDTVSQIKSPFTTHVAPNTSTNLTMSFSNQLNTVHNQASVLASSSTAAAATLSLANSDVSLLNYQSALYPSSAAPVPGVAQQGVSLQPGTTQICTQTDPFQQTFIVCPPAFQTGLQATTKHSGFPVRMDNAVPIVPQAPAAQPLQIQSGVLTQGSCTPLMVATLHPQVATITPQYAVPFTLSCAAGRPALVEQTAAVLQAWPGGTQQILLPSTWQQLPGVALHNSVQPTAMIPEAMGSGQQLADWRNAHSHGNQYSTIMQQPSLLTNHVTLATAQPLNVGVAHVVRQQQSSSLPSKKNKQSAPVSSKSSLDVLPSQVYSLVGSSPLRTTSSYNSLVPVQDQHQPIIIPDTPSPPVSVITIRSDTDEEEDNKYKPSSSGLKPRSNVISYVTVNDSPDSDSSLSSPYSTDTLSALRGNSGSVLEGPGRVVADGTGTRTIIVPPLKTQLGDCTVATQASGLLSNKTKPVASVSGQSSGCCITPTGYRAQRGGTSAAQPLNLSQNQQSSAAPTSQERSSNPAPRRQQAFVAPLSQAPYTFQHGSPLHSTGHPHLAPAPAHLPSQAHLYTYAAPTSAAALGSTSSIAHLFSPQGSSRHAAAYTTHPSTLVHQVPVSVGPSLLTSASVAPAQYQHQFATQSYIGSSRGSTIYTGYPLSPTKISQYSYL

Compound: CNc1nc(-c2ccc3c(N)n[nH]c3c2)cc(N2C[C@@H](C(=O)NC3CCCCC3)CC[C@H]2C)n1
- residual activity (BTK (human); compound 0.01 µM): 126%
- residual activity (BTK (human); compound 0.1 µM): 121%
- residual activity (BTK (human); compound 1.0 µM): 110%
- residual activity (HIPK1 (human); compound 0.01 µM): 102%
- residual activity (HIPK1 (human); compound 0.1 µM): 105%
- residual activity (HIPK1 (human); compound 1.0 µM): 102%
- residual activity (RIPK2 (human); compound 0.01 µM): 110%
- residual activity (RIPK2 (human); compound 0.1 µM): 114%
- residual activity (RIPK2 (human); compound 1.0 µM): 107%
- residual activity (DYRK1A (human); compound 0.01 µM): 102%
- residual activity (DYRK1A (human); compound 0.1 µM): 107%
- residual activity (DYRK1A (human); compound 1.0 µM): 103%
- residual activity (PRKCZ (human); compound 0.01 µM): 113%
- residual activity (PRKCZ (human); compound 0.1 µM): 105%
- residual activity (PRKCZ (human); compound 1.0 µM): 72%
- residual activity (HIPK2 (human); compound 0.01 µM): 119%
- residual activity (HIPK2 (human); compound 0.1 µM): 124%
- residual activity (HIPK2 (human); compound 1.0 µM): 113%
- residual activity (GSK3B (human); compound 0.01 µM): 108%
- residual activity (GSK3B (human); compound 0.1 µM): 111%
- residual activity (GSK3B (human); compound 1.0 µM): 109%
- residual activity (MARK3 (human); compound 0.01 µM): 113%
- residual activity (MARK3 (human); compound 0.1 µM): 109%
- residual activity (MARK3 (human); compound 1.0 µM): 114%
- residual activity (FGFR1 (human); compound 0.01 µM): 119%
- residual activity (FGFR1 (human); compound 0.1 µM): 119%
- residual activity (FGFR1 (human); compound 1.0 µM): 110%
- residual activity (TTK (human); compound 0.01 µM): 90%
- residual activity (TTK (human); compound 0.1 µM): 98%
- residual activity (TTK (human); compound 1.0 µM): 82%
- residual activity (MARK4 (human); compound 0.01 µM): 106%
- residual activity (MARK4 (human); compound 0.1 µM): 114%
- residual activity (MARK4 (human); compound 1.0 µM): 102%
- residual activity (DYRK3 (human); compound 0.01 µM): 100%
- residual activity (DYRK3 (human); compound 0.1 µM): 103%
- residual activity (DYRK3 (human); compound 1.0 µM): 93%
- residual activity (SRC (human); compound 0.01 µM): 101%
- residual activity (SRC (human); compound 0.1 µM): 105%
- residual activity (SRC (human); compound 1.0 µM): 97%
- residual activity (PRKCA (human); compound 0.01 µM): 104%
- residual activity (PRKCA (human); compound 0.1 µM): 105%
- residual activity (PRKCA (human); compound 1.0 µM): 94%
- residual activity (EEF2K (human); compound 0.01 µM): 108%
- residual activity (EEF2K (human); compound 0.1 µM): 100%
- residual activity (EEF2K (human); compound 1.0 µM): 97%
- residual activity (NUAK1 (human); compound 0.01 µM): 120%
- residual activity (NUAK1 (human); compound 0.1 µM): 105%
- residual activity (NUAK1 (human); compound 1.0 µM): 47%
- residual activity (RPS6KA1 KD1 KD2 (human); compound 0.01 µM): 123%
- residual activity (RPS6KA1 KD1 KD2 (human); compound 0.1 µM): 113%
- residual activity (RPS6KA1 KD1 KD2 (human); compound 1.0 µM): 94%
- residual activity (INSRR (human); compound 0.01 µM): 111%
- residual activity (INSRR (human); compound 0.1 µM): 111%
- residual activity (INSRR (human); compound 1.0 µM): 109%
- residual activity (RPS6KA5 KD1 KD2 (human); compound 0.01 µM): 102%
- residual activity (RPS6KA5 KD1 KD2 (human); compound 0.1 µM): 100%
- residual activity (RPS6KA5 KD1 KD2 (human); compound 1.0 µM): 94%
- residual activity (MAPK3 (human); compound 0.01 µM): 93%
- residual activity (MAPK3 (human); compound 0.1 µM): 106%
- residual activity (MAPK3 (human); compound 1.0 µM): 94%
- residual activity (MAP3K9 (human); compound 0.01 µM): 110%
- residual activity (MAP3K9 (human); compound 0.1 µM): 111%
- residual activity (MAP3K9 (human); compound 1.0 µM): 107%
- residual activity (CaMK1 (human); compound 0.01 µM): 108%
- residual activity (CaMK1 (human); compound 0.1 µM): 112%
- residual activity (CaMK1 (human); compound 1.0 µM): 117%
- residual activity (CHEK2 (human); compound 0.01 µM): 129%
- residual activity (CHEK2 (human); compound 0.1 µM): 121%
- residual activity (SYK (human); compound 0.01 µM): 109%
- residual activity (SYK (human); compound 0.1 µM): 105%
- residual activity (SYK (human); compound 1.0 µM): 103%
- residual activity (MAPK8 (human); compound 0.01 µM): 92%
- residual activity (MAPK8 (human); compound 0.1 µM): 108%
- residual activity (MAPK8 (human); compound 1.0 µM): 99%
- residual activity (RPS6KA3 KD1 KD2 (human); compound 0.01 µM): 96%
- residual activity (RPS6KA3 KD1 KD2 (human); compound 0.1 µM): 97%
- residual activity (RPS6KA3 KD1 KD2 (human); compound 1.0 µM): 79%
- residual activity (MAPKAPK2 (human); compound 0.01 µM): 104%
- residual activity (MAPKAPK2 (human); compound 0.1 µM): 111%
- residual activity (MAPKAPK2 (human); compound 1.0 µM): 101%
- residual activity (FLT1 (human); compound 0.01 µM): 98%
- residual activity (FLT1 (human); compound 0.1 µM): 108%
- residual activity (FLT1 (human); compound 1.0 µM): 89%
- residual activity (MAPK15 (human); compound 0.01 µM): 106%
- residual activity (MAPK15 (human); compound 0.1 µM): 117%
- residual activity (MAPK15 (human); compound 1.0 µM): 107%
